# Experimental data published in patent US9744212B2, “Galectin-3C combination therapy for human cancer” (Texas Tech University System, priority 2011, dated 2017).
# Legend:
# HUVEC [1] = assay: Vascular endothelial cell viability assay; assay type: cell-based, human
# Protocol: FIGS. 4A and 4B are graphs of the data from the vascular endothelial cell viability assay. […] The graphs show mean values and error bars represent 95% C.I. **=ANOVA Tukey's post test p<O.Ol. n.s.=not significant. […] Viability was measured as described for the U266 cells. […] Results obtained from the HUVEC viability studies that were run in triplicate are depicted in FIGS. 4A-B, and are presented as a percentage of control (untreated) cells.
# EXAMPLE 3 illustrates Gal-3C inhibits proliferation of MM cells. Cell Proliferation (Viability) Assays. Cell proliferation was assessed with a ViaLight Plus Cell Proliferation and Cytotoxicity BioAssay Kit (Lonza, Walkersville, Md., USA) according to the directions of the manufacturer. In brief, myeloma cells were seeded (8,000 per well) in 50 μL of RPMI-1640 with 10% heat-inactivated FBS (growth medium) in 96-well plates. HUVEC cells were seeded (10,000/well) in 50 μl EGM-2 medium in 96-well plates. Gal-3C (2× concentration) in 50 μL of growth medium was added to triplicate wells and the plate kept at the CO2 incubator at 37° C. for 48 hour. For the ViaLight assay, 50 μL of lysis buffer was added to each well, the plate was incubated for 10 minutes, after which 50 μL of cell lysate from each well was transferred to a solid white Lumitrac-200 plate and 50 μL of reconstituted AMR Plus was added. Luminescence was measured with a 1-s integrated setting in a Berthold luminometer after 2 minutes. With Alamar Blue, 10 μL of reagent was added per well and the plate kept in the CO2 incubator for 4 hours. Fluorescence intensity was measured at 590-nm on a Polarstar Galaxy (BMG Labtech, Cary, N.C.) microplate reader. The blank (growth media with 10 μl Alamar Blue) was subtracted from the raw fluorescence to obtain adjusted fluorescence readings. Triplicate data points were analyzed and the data shown are representative of 3 or more studies.
# HUVEC [2] = assay: HUVEC tubule formation assay on Matrigel with U266 conditioned media; assay type: cell-based, human; settings: 20% V/V conditioned medium of U266 treated 48 h with 10 μg/mL Gal-3C, 5 nM Bor or both; 16-hour incubation
# Protocol: HUVEC Tubule Formation Assay. A tubule formation assay was performed in vitro as described (86) to measure angiogenesis. Briefly, growth factor-reduced Matrigel (Becton Dickinson) was allowed to polymerize in the presence of 30 ng/mL recombinant basic fibroblastic growth factor (bFGF; R&D Systems) for 1 hour at 37° C.
# FIG. 5 is an image of the results from the In vitro tubule formation assay having 6 regions. Serum-starved HUVEC were allowed to form tubules on a […]™ surface in the presence of VEGF (positive control), EMB-2 medium alone (negative control), or EBM-2 supplemented with 20% V/V U266 conditioned media (c.m.). […] To evaluate the effect of different treatments on the ability of U266 cells to induce angiogenesis, a […]™-based tubule formation assay was performed in the presence of U266 conditioned media as described for the chemotaxis assay. Serum-starved (5×103) HUVEC were seeded on the […]™ surface in 200-μL EBM-2 medium supplemented with 20% V/V conditioned medium. Pictures were taken after 16-hour incubation in 5% CO2 at 37° C. The assay was run in triplicate and representative images are depicted in FIG. 5. As a positive control, EBM-2 medium supplemented with 20 ng/mL VEGF was used.
# bFGF = assay: ELISA of bFGF in U266 cell-conditioned medium; assay type: cell-based, human; settings: 48-hour culture with 10 μg/mL Gal-3C, 5 nM Bor or both
# Protocol: (§1) ELISA of VEGF and bFGF Levels. The levels of VEGF and bFGF were measured by direct ELISA as follows. Flat-bottom 96-well polycarbonate plates were coated at 4° C. with 50 μL/well cell culture supernatants diluted 1:25 in carbonate coating buffer (0.1 M NaHCO3, […]) at 4° C. overnight. Standard curves were obtained with purified recombinant human VEGF and bFGF (both from R&D Systems) serially diluted in coating buffer (10-fold serial dilutions from 1,000 to 0 ng/mL). After removing diluted supernatants or standards, and blocking with PBS supplemented with 1% W/V BSA for 1 hour at room temperature, plates were incubated for 1 hour at room temperature with mouse anti-human VEGF or rabbit anti-human bFGF primary antibodies (2 μg/mL in PBS, 50 μL/well Abeam, Mass., USA). Then, plates were washed twice with PBS with 0.025% V/V Tween-20 (300 μL/well) and incubated at room temperature with anti-mouse or anti-rabbit HRP-labeled secondary antibodies (0.2 μg/mL in PBS, 50 μL/well Abeam, Mass., USA) for 1 hour. The plates were washed thrice with PBS containing 0.025% V/V Tween-20 (300 μL/well), the TMB colorimetric substrate (Thermo Fisher Scientific, Waltham, Mass., USA) was added, and after 5 minutes the absorbance was measured (0.1 s) at 450 nm on a Victor 2 multimodal microplate reader (PerkinElmer, Billerica, Mass., USA). All samples were run in triplicates. […]
# AKT/IKK pathway = assay: Western blot of proteins in the NF-κB AKT/IKK pathway; assay type: cell-based; settings: U266 and primary human MM cells; Gal-3C 10 μg/ml
# From the text: EXAMPLE 4 indicates Gal-3C impairs NF-kB activation induced by Bonin U266 cells. Recently, it has been shown that the mechanism of action of Boris more complex than originally thought and can be differ depending on the cell type. […] This effect potentially reduces the therapeutic effect of Bonin MM, because NF-kB activation in plasma cells is associated with anti-apoptotic pathways (91). […] Comparison of NFkB expression by Western blot. […] Equal amounts of lysates of human primary MM and U266 cells and media were fractionated by SDS-PAGE and transferred to nitrocellulose membranes. Primary antibodies were visualized with HRP-coupled goat anti-rabbit or anti-mouse IgGs using an ATK/IKK kit (Cell Signaling Technology, Danvers, Mass.).
# Upon IKK-mediated phosphorylation, IKBα dissociates from the NF-kB complex (p50 and p65 proteins). Free NF-kB is then phosphorylated on serine 529 of the p65 subunit and enters the nucleus where it regulates gene transcription.
# [3] = tested on: NF-kB (serine 529 phosphorylated p65 subunit); assay: Quantification of NF-kappaB activation by flow cytometry in U266 cells; assay type: cell-based, human; settings: 48 hours
# Protocol: Quantification of NF-kappaB Activation by Flow Cytometry. For measurement of NF-kB activation, 200×10^3 cells were fixed with 2% PFA in ice-cold PBS for 30 minutes. After removal of PFA, cells were permeabilized with 0.3% saponin in PBS on ice for 15 minutes, then washed and resuspended in 50 μL PBS supplemented with 1% BSA. PE-labeled anti-phosphorylated serine 529 p65 antibody (BD Biosciences, San Jose, Calif., USA) or isotype control (final dilution, 1:20) and allowed to incubate on ice in the dark for 30 minutes. Before flow-cytometric analysis cells were washed 3 times in 1-mL cold PBS with 1% BSA.
# FIG. 8A is a dot-plot of NF-kB activation in U266 cells. After 48 hours in the presence of indicated treatments, the levels of active NF-KB (serine 529 phosphorylated p65 subunit) were evaluated in U266 cells by flow cytometry.
# VEGF = assay: ELISA of VEGF in U266 cell-conditioned medium; assay type: cell-based, human; settings: 48-hour culture with 10 μg/mL Gal-3C, 5 nM Bor or both
# Protocol: as §1
structure (smiles),measurement,setting,value
"CC(C)C[C@H](NC(=O)[C@H](Cc1ccccc1)NC(=O)c1cnccn1)B(O)O [Bor, bortezomib, reference compound]",effect on HUVEC viability,"HUVEC [1]; Bor at the concentration used in HUVEC assays, combined with different concentrations of Gal-3C",did not display any effect
same,effect on HUVEC viability,"HUVEC [1]; at the concentration used in the chemotaxis and angiogenesis assays (Gal-3C 2 μg/ml, Bor 1 nM), 48 h",had an effect only at a concentration 5-fold higher
same,effect on HUVEC viability,"HUVEC [1]; at the highest concentrations, 48 h",dramatic inhibition
same,potential of U266 cells for induction of angiogenesis (tubule formation),HUVEC [2],almost completely impaired
same,bFGF levels in U266 conditioned medium,bFGF,significantly reduced
same,"P-p65, P-Akt, P-IKKβ and P-IKKα (activation of the AKT/IKK pathway)",AKT/IKK pathway,increased
same,NF-kB activation (phosphorylated active form),[3],activated NF-kB incrementally
same,VEGF levels in U266 conditioned medium,VEGF,significantly reduced
